According to ChEMBL document CHEMBL4311969, “Polygala tenuifolia-Acori tatarinowii herbal pair as an inspiration for substituted cinnamic α-asaronol esters: Design, synthesis, anticonvulsant activity, and inhibition of lactate dehydrogenase study” (Eur J Med Chem, 2019):

Experiments:
[1] = Noncompetitive inhibition of human LDH5 at 0.5 mM using sodium pyruvate as substrate by UV-VIS spectrophotometry method based Lineweaver-Burk plot analysis
[2] = system: Mus musculus; assay: Potency index, ratio of ED50 of stiripentol to ED50 of compound anticonvulsant activity in ip dosed Kunming mouse assessed as MES-induced hind limb extension administered 0.5 hrs before MES stimulation; type: functional
[3] = target: T1, GABA-A receptor; alpha-1/beta-2/gamma-2 (Homo sapiens, UniProt P14867+P18507+P47870); assay: Agonist activity at GABA alpha1beta2gamma2 receptor in human HEK293T at -50 mV holding potential by whole cell voltage clamp assay; type: protein-complex assay
T1 sequence (P14867 whole entry): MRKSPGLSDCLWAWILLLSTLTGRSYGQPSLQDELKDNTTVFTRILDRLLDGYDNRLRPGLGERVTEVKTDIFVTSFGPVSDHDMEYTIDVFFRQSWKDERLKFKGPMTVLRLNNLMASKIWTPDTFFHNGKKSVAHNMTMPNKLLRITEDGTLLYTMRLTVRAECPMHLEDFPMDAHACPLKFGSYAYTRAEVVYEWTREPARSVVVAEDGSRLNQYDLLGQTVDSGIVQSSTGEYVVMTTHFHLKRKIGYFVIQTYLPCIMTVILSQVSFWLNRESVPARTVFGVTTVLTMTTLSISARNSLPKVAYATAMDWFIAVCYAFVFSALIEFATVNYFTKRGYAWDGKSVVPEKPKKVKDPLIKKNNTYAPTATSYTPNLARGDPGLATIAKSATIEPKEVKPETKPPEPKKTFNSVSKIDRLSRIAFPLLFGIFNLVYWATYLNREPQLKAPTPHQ
T1 sequence (P47870 whole entry): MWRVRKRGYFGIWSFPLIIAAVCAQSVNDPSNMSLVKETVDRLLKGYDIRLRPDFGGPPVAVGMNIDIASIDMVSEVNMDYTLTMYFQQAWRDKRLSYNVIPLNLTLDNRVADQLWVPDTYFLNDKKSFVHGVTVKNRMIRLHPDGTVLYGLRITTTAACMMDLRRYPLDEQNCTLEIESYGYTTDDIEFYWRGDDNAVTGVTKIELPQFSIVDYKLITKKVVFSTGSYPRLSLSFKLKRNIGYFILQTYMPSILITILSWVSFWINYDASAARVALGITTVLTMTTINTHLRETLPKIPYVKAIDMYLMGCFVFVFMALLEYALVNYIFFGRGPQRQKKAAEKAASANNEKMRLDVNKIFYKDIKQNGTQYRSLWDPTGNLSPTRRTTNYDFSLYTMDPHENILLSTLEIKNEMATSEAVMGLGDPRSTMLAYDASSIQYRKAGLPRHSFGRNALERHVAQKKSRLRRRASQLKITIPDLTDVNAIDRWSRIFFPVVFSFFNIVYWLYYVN
T1 sequence (P18507 whole entry): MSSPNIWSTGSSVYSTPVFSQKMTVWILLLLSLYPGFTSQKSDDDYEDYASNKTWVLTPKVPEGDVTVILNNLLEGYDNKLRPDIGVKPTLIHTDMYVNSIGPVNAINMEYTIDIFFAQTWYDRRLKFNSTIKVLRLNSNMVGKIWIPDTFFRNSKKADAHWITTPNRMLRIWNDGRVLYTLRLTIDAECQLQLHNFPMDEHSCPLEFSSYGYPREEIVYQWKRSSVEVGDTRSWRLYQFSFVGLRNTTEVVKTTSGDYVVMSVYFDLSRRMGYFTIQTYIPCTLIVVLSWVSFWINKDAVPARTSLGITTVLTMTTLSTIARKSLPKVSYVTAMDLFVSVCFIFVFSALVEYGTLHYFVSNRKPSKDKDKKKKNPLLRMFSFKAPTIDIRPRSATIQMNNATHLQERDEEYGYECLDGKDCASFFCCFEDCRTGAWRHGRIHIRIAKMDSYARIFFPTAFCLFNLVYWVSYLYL

[4] = target: GABA-A receptor; alpha-1/beta-2/gamma-2 (Homo sapiens) (UniProt P14867+P47870+P18507); assay: Agonist activity at GABA alpha1beta2gamma2 receptor in human HEK293T at 3.3 to 300 uM at -50 mV holding potential by whole cell voltage clamp assay relative to control; type: protein-complex assay
[5] = Drug uptake in Sprague-Dawley rat spleen at 50 mg/kg, po; type: ADME, organism-based; conditions: in vivo

Row | Compound | Ki [1] | Ratio ED50 [2] | EC50 [3] | %max [4] | Drug uptake [5]
1 | COc1cc(OC)c(OC)cc1/C=C/COC(=O)/C=C/c1cc(OC)c(OC)c(OC)c1OC | 4.84 µM | 3.96 | – | – | –
2 | COc1cc(OC)c(OC)cc1/C=C/COC(=O)/C=C/c1c(OC)cc(OC)c(OC)c1OC | – | – | 46.3 µM | 356% | Active
